From PubChem BioAssay AID1963858 (Molecular Pharmacology Branch, DTP, NCI, 2024)
Active and inactive are the calls of the source. How the source made its calls: active means viability on the fitted dose curve at most 10% of control; inactive means the rest.

Tested on: HOP-62 multicell spheroids with HUVEC/MSC, viability
Experiment: Anticancer human tumor HOP-62 cell line growth inhibition [KRAS2];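 on IC50: viability read after a week of compound exposure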;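 on viability, T/C: viability read after a week of compound exposure; 100% = DMSO vehicle-treated spheroids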
Details: for IC50: curve of first compound; for viability, T/C: stronger effect = lower value
Procedure, shortened: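 KRAS-mutant tumor cells were grown as spheroids with HUVEC endothelial cells and human MSCs as stroma. Targeted agents were tested alone and with KRAS pathway inhibitors. Doses started at or near clinical Cmax, or 10 microM, descending half-log.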

[1] = second compound 0.1 µM, first compound 0.000316 µM
[2] = second compound 0.1 µM, first compound 0.001 µM
[3] = second compound 0.1 µM, first compound 0.00316 µM
[4] = second compound 0.1 µM, first compound 0.01 µM
[5] = second compound 0.1 µM, first compound 0.0316 µM
[6] = second compound 0.316 µM, first compound 0.000316 µM
[7] = second compound 0.316 µM, first compound 0.001 µM
[8] = second compound 0.316 µM, first compound 0.00316 µM
[9] = second compound 0.316 µM, first compound 0.01 µM
[10] = second compound 0.316 µM, first compound 0.0316 µM
[11] = second compound 1 µM, first compound 0.000316 µM
[12] = second compound 1 µM, first compound 0.001 µM
[13] = second compound 1 µM, first compound 0.00316 µM
[14] = second compound 1 µM, first compound 0.01 µM
[15] = second compound 1 µM, first compound 0.0316 µM
[16] = second compound 3.16 µM, first compound 0.000316 µM
[17] = second compound 3.16 µM, first compound 0.001 µM
[18] = second compound 3.16 µM, first compound 0.00316 µM
[19] = second compound 3.16 µM, first compound 0.01 µM
[20] = second compound 3.16 µM, first compound 0.0316 µM
[21] = second compound 10 µM, first compound 0.000316 µM
[22] = second compound 10 µM, first compound 0.001 µM
[23] = second compound 10 µM, first compound 0.00316 µM
[24] = second compound 10 µM, first compound 0.01 µM
[25] = second compound 10 µM, first compound 0.0316 µM
[26] = second compound 0.1 µM, first compound 0.1 µM
[27] = second compound 0.316 µM, first compound 0.1 µM
[28] = second compound 1 µM, first compound 0.1 µM
[29] = second compound 3.16 µM, first compound 0.1 µM
[30] = second compound 10 µM, first compound 0.1 µM

CC(=O)Nc1cccc(-n2c(=O)n(C3CC3)c(=O)c3c(Nc4ccc(I)cc4F)n(C)c(=O)c(C)c32)c1 + CC1OCC2(CCN(c3cnc(Sc4ccnc(N)c4Cl)c(N)n3)CC2)C1N showed an IC50 (second compound 0.1 µM) of 2.14 nM, an IC50 (second compound 0.316 µM) of 0.877 nM and an IC50 (second compound 1 µM) of 0.167 nM. For the same compound, the IC50 (second compound 3.16 µM) was less than 0.1 nM, the IC50 (second compound 10 µM) was less than 0.1 nM and the viability, T/C (second compound 0.1 µM, first compound 0.0001 µM) was 93.8%. For the same compound, the viability, T/C [1] was 86.2%, the viability, T/C [2] was 67.9% and the viability, T/C [3] was 41%. The viability, T/C [4] was 29.1%, the viability, T/C [5] was 28.5% and the viability, T/C (second compound 0.316 µM, first compound 0.0001 µM) was 79.8%. For the same compound, the viability, T/C [6] was 64.2%, the viability, T/C [7] was 49.8% and the viability, T/C [8] was 33.8%. The viability, T/C [9] was 22.9%, the viability, T/C [10] was 25.8% and the viability, T/C (second compound 1 µM, first compound 0.0001 µM) was 55.2%. It also gave a viability, T/C [11] of 42.8%, a viability, T/C [12] of 33.5% and a viability, T/C [13] of 21.5%. For the same compound, the viability, T/C [14] was 20.2%, the viability, T/C [15] was 21.5% and the viability, T/C (second compound 3.16 µM, first compound 0.0001 µM) was 25.8%. For the same compound, the viability, T/C [16] was 16.9%, the viability, T/C [17] was 14.4% and the viability, T/C [18] was 17.7%. It also gave a viability, T/C [19] of 15.4%, a viability, T/C [20] of 15.7% and a viability, T/C (second compound 10 µM, first compound 0.0001 µM) of 20.2%. The viability, T/C [21] was 14.3%, the viability, T/C [22] was 15.3% and the viability, T/C [23] was 14.2%. It also gave a viability, T/C [24] of 12.4% and a viability, T/C [25] of 13.7%.

For CC(=O)OC12COC1CC(O)C1(C)C(=O)C(O)C3=C(C)C(OC(=O)C(O)C(NC(=O)OC(C)(C)C)c4ccccc4)CC(O)(C(OC(=O)c4ccccc4)C21)C3(C)C (stereo not given) + CC1OCC2(CCN(c3cnc(Sc4ccnc(N)c4Cl)c(N)n3)CC2)C1N, the IC50 (second compound 0.1 µM) was less than 10 nM, the IC50 (second compound 0.316 µM) was less than 10 nM and the IC50 (second compound 1 µM) was less than 10 nM. For the same compound, the IC50 (second compound 3.16 µM) was less than 10 nM, the IC50 (second compound 10 µM) was less than 10 nM and the viability, T/C [4] was 35.9%. For the same compound, the viability, T/C [5] was 34.9%, the viability, T/C [26] was 35.6% and the viability, T/C (second compound 0.1 µM, first compound 0.316 µM) was 37.6%. It also gave a viability, T/C (second compound 0.1 µM, first compound 1 µM) of 38.2%, a viability, T/C (second compound 0.1 µM, first compound 3.16 µM) of 40.1% and a viability, T/C [9] of 31.2%. For the same compound, the viability, T/C [10] was 33%, the viability, T/C [27] was 31.2% and the viability, T/C (second compound 0.316 µM, first compound 0.316 µM) was 29.8%. The viability, T/C (second compound 0.316 µM, first compound 1 µM) was 33.1%, the viability, T/C (second compound 0.316 µM, first compound 3.16 µM) was 36.4% and the viability, T/C [14] was 37.5%. The viability, T/C [15] was 33.8%, the viability, T/C [28] was 32.7% and the viability, T/C (second compound 1 µM, first compound 0.316 µM) was 34.5%. The viability, T/C (second compound 1 µM, first compound 1 µM) was 34.8%, the viability, T/C (second compound 1 µM, first compound 3.16 µM) was 45% and the viability, T/C [19] was 25.5%. It also gave a viability, T/C [20] of 22.3%, a viability, T/C [29] of 39.3% and a viability, T/C (second compound 3.16 µM, first compound 0.316 µM) of 25.5%. The viability, T/C (second compound 3.16 µM, first compound 1 µM) was 25.6%, the viability, T/C (second compound 3.16 µM, first compound 3.16 µM) was 26.9% and the viability, T/C [24] was 23%. It also gave a viability, T/C [25] of 18.8%, a viability, T/C [30] of 35.4% and a viability, T/C (second compound 10 µM, first compound 0.316 µM) of 23.5%. It also gave a viability, T/C (second compound 10 µM, first compound 1 µM) of 25.7% and a viability, T/C (second compound 10 µM, first compound 3.16 µM) of 29.4%.

Work on CN(C)C/C=C/C(=O)Nc1cc2c(Nc3ccc(F)c(Cl)c3)ncnc2cc1O[C@H]1CCOC1 + CC1OCC2(CCN(c3cnc(Sc4ccnc(N)c4Cl)c(N)n3)CC2)C1N yielded an IC50 (second compound 0.1 µM) greater than 100 nM, an IC50 (second compound 0.316 µM) greater than 100 nM and an IC50 (second compound 1 µM) greater than 100 nM. The IC50 (second compound 3.16 µM) was greater than 100 nM, the IC50 (second compound 10 µM) was less than 0.316 nM and the viability, T/C [1] was 112%. For the same compound, the viability, T/C [2] was 109%, the viability, T/C [3] was 103% and the viability, T/C [4] was 95.4%. For the same compound, the viability, T/C [5] was 102%, the viability, T/C [26] was 91.3% and the viability, T/C [6] was 97.6%. The viability, T/C [7] was 93.9%, the viability, T/C [8] was 104% and the viability, T/C [9] was 86.2%. It also gave a viability, T/C [10] of 90.9%, a viability, T/C [27] of 79.2% and a viability, T/C [11] of 110%. It also gave a viability, T/C [12] of 106%, a viability, T/C [13] of 107% and a viability, T/C [14] of 102%. For the same compound, the viability, T/C [15] was 105%, the viability, T/C [28] was 104% and the viability, T/C [16] was 60.8%. For the same compound, the viability, T/C [17] was 46.2%, the viability, T/C [18] was 53.3% and the viability, T/C [19] was 53.3%. For the same compound, the viability, T/C [20] was 56.7%, the viability, T/C [29] was 47.1% and the outcome [21] was “inactive”. For the same compound, the outcome [22] was “inactive”, the viability, T/C [23] was 43.6% and the outcome [24] was “inactive”. For the same compound, the viability, T/C [25] was 49.4% and the viability, T/C [30] was 46.8%.
